The text below walks through data of paper PMC5831597, “Alleviating the Intestinal Absorption of Rhein in Rhubarb through Herb Compatibility in Tiaowei Chengqi Tang in Caco-2 Cells” (Evidence-based Complementary and Alternative Medicine : eCAM, 2018).

In general, IC50 refers to the concentration needed to halve the response being measured. By Papp is commonly meant a coefficient for how fast a substance crosses the barrier.

Converted amounts (≈) assume the structure as drawn.

Data set [1] in a line: MTT cytotoxicity assay on Caco-2 cells. Type of data set: cell-based. As to conditions: human, 48 h exposure. As for the experimental part: Caco-2 cells were maintained in DMEM containing 10% FBS (inactivation at 56°C for 30 min), 1% NEAA, and 1% penicillin and streptomycin solution in a humidified atmosphere with 5% CO2 at 37°C. The medium was replaced every 2 days, and the cells were passaged at 80 to 90% confluence using trypsin/phosphate-buffered saline (PBS, pH 7.4). The cytotoxicity of rhein, RE, PE, RPE, and TWCQT to Caco-2 cells was evaluated by MTT assay. Briefly, 200 μl of Caco-2 cells was seeded in a 96-well plate (Coring, NY, USA) at a density of 2 × 10^4 cells/ml. Following incubation for 24 h, different concentrations of test solution were added. Thereafter, 20 μl of 5 mg/mL MTT was added, the medium was removed after 4 h, and the remaining formazan crystals were solubilized with 150 μl of dimethyl sulfoxide (DMSO). The absorbance was measured at 490 nm on a microplate reader (Thermo Scientific, Tokyo, Japan). Cells incubated without the test samples were used as controls. In each MTT assay, every sample was tested in 6 replicates.
On the technique in general: Formazan colour is commonly taken as a measure of viable cells.

Data set [2] deals with human colon adenocarcinoma cells (Caco-2). Set-up: method as in PMID 19538468. As to conditions: Caco-2, 0.1–10 μg/ml; cited from earlier work.
A further data set concerns MRP2. The data set is described as follows: Transport of rhein across the Caco-2 cell monolayer (A to B, B to A). Type of data set: in vitro ADME, human. Particulars: human, Caco-2, with MK-571 50 μmol/ml, loaded onto the A side; rhein 27.3 μg/ml; MK-571 50 μmol/ml (MRP2 inhibitor); read-out: ER of rhein in presence of MK-571. On the procedure:
(§1) For transport experiments, the cells were seeded at a density of 1 × 10^5 cells/ml on polycarbonate membranes of cell culture inserts (6.5 mm membrane diameter, 0.4 μm pore size, and 0.33 cm^2 surface area) and placed in 12-well cell culture clusters. The transepithelial electrical resistance (TEER) was assessed using a Millicell ERS-2 (Millipore, USA) to reflect the tightness of intercellular junctions. […] The transports of rhein alone, rhein in RE, PE, RPE, and TWCQT across Caco-2 monolayers were investigated. Briefly, the cell monolayers were washed 3 times with D-Hanks. After each wash, the plates were incubated in fresh D-Hanks for 30 min at 37°C. The transport experiments were conducted by adding the test solution to either the apical (A, 0.5 ml) or basolateral side (B, 1.5 ml), while the receiving chamber contained the corresponding volume of prewarmed drug-free D-Hanks. Every experiment was repeated 3 times, and the plates were incubated in an orbital shaker at 37°C. […] sequential samples (50 μl) were taken at different times (30, 60, 90, 120, and 150 min) from both sides of the cell monolayer. The same volume of D-Hanks was immediately added to replace the samples obtained. […] All inhibitors were loaded onto the A side of the monolayers. […] The concentrations of all the samples were analyzed by UPLC-QTOF-HRMS-MS. Data in the present study were presented as mean ± standard deviation (SD). Significant analysis was performed using Statistical Package for Social Sciences (SPSS) version 16.0 (SPSS Inc., Chicago, IL, USA). Statistical significance was determined by one-way ANOVA with Dunnett's test and differences were considered significant when p < 0.05. In the Caco-2 cell model, the rate of transport was obtained from the amount transported versus time curve using linear regression. The apparent permeability (Papp) used as an expression of the absorption rate constant was calculated as follows: Papp = (dQ/dt)/(A × C0), where dQ/dt is the rate at which the compound appears in the receiver chamber (mg/s), A is the surface area of the filter membrane ([…]), and C0 is the initial concentration in the donor chamber (mg/mL). Efflux ratio (ER) was calculated from the following equation: ER = […]), where Papp(B to A) is the Papp value measured in the B to A direction and Papp(A to B) is the Papp value measured in the A to B direction.

In data set [3] the test system is BCRP. Described as above. Type of data set: in vitro ADME, human. Particulars: human, Caco-2, with Ko143 10 μmol/ml, loaded onto the A side; rhein 27.3 μg/ml; Ko143 10 μmol/ml (BCRP inhibitor); read-out: ER of rhein in presence of Ko143. As for the experimental part: as §1
The next data set has as its system Caco-2 cell monolayer. The data set is described as above. The format is in vitro ADME, human. On the procedure: as §1
Assay in data set [4]: as above
The format is in vitro ADME, human. Particulars: human, Caco-2, PE, RPE. As for the experimental part: as §1

Another data set relates to P-gp. The description is as above. Type of data set: in vitro ADME, human. Particulars: human, Caco-2, with verapamil 50 μmol/ml, loaded onto the A side; rhein 27.3 μg/ml; verapamil 50 μmol/ml (P-gp inhibitor); read-out: ER of rhein in presence of verapamil. As for the experimental part: as §1
Another data set has as its system Caco-2 cells. The data set can be described thus: Cellular uptake of rhein in cultured Caco-2 cell monolayers. The format is in vitro ADME, human. Particulars: rhein 27.3 μg/ml. On the procedure:
Cell monolayers were prepared as described for the transport studies. […] Cells attached to the polycarbonate membranes were cut off from the inserts, immersed in 1 ml blank D-Hanks, and sonicated for 15 min. The mixture was centrifuged at 10,000 ×g for 5 min. The concentrations of all the samples were analyzed by UPLC-QTOF-HRMS-MS.

For data set [5], the system named is BCRP. As to conditions: BCRP inhibitor; cited from earlier work.

`O=C(O)c1cc(O)c2c(c1)C(=O)c1cccc(O)c1C2=O` [Rhein] returned an IC50 at 48 h in data set [1] of 3490 ± 960 µg/mL (≈ 12.3 mM). Moreover, in data set [2], the “cytotoxic and genotoxic effects” value was “devoid of cytotoxic and genotoxic effects”. Besides, the efflux ratio at 150 min, 27.3 μg/ml in the data set on MRP2 was 1.98; in the data set on BCRP [3] it was 1.27; in data set [4] (rhein 27.3 μg/ml, TWCQT 1 mg/ml, read-out: ER PBA/PAB of rhein) it was 2.83; in the data set on P-gp, 2.12. In addition, the “ER of rhein at different concentrations” value in the data set with Caco-2 cell monolayer (8.61, 17.22, 34.44, 27.3, 54.6 and 109.2 μg/ml rhein) is reported as “more than 1.5”. The “amounts of rhein transported from B to A after Ko143” value in the data set with Caco-2 cell monolayer (rhein 27.3 μg/ml, Ko143 10 μmol/ml, p < 0.01) was “significantly decreased”. In addition, the “influence of MK-571 on Papp values of rhein from B to A” value with Caco-2 cell monolayer (rhein 27.3 μg/ml, MK-571 50 μmol/ml, p < 0.05) is given as “significant influences”. In the data set with Caco-2 cell monolayer (rhein 27.3 μg/ml, verapamil 50 μmol/ml), the “influence of verapamil on Papp values of rhein from A to B or B to A” value is “no significant influence”. Also, the Papp at 150 min, 27.3 μg/ml in data set [4] (apical to basolateral, rhein 27.3 μg/ml, TWCQT 1 mg/ml, read-out: Papp PAB of rhein) is 2.31 ± 0.13 ×10⁻⁶ cm/s. In data set [4] (apical to basolateral, rhein 54.6 μg/ml, TWCQT 2 mg/ml, read-out: Papp PAB of rhein), the apparent permeability (Papp) at 150 min, 54.6 μg/ml turned out to be 2.58 ± 0.26 ×10⁻⁶ cm/s. Moreover, the apparent permeability (Papp) at 150 min, 109.2 μg/ml in data set [4] (apical to basolateral, rhein 109.2 μg/ml, TWCQT 4 mg/ml, read-out: Papp PAB of rhein) amounted to 2.52 ± 0.19 ×10⁻⁶ cm/s. The Papp B→A at 150 min, 27.3 μg/ml in data set [4] (basolateral to apical, rhein 27.3 μg/ml, TWCQT 1 mg/ml, read-out: Papp PBA of rhein) came to 6.54 ± 0.27 ×10⁻⁶ cm/s. The Papp B→A at 150 min, 54.6 μg/ml in data set [4] (basolateral to apical, rhein 54.6 μg/ml, TWCQT 2 mg/ml, read-out: Papp PBA of rhein) is 7.02 ± 0.58 ×10⁻⁶ cm/s. The Papp B→A at 150 min, 109.2 μg/ml in data set [4] (basolateral to apical, rhein 109.2 μg/ml, TWCQT 4 mg/ml, read-out: Papp PBA of rhein) came out at 6.72 ± 0.31 ×10⁻⁶ cm/s. Further, the efflux ratio at 150 min, 54.6 μg/ml in [4] (rhein 54.6 μg/ml, TWCQT 2 mg/ml, read-out: ER PBA/PAB of rhein) is 2.72. Further, the efflux ratio at 150 min, 109.2 μg/ml in data set [4] (rhein 109.2 μg/ml, TWCQT 4 mg/ml, read-out: ER PBA/PAB of rhein) amounted to 2.38. The “intracellular accumulation of rhein after Ko143” value in the data set on Caco-2 cells (2 h, Ko143 10 μmol/ml) is reported as “significantly increased”. Moreover, the “intracellular amounts of rhein after MK-571” value with Caco-2 cells (2 h, MK-571 50 μmol/ml) is “no significant changes”. Also, the “intracellular amounts of rhein after verapamil” value in the data set on Caco-2 cells (2 h, verapamil 50 μmol/ml) is given as “no significant changes”. In addition, the “cellular uptake of rhein” value in the data set with Caco-2 cells (A compartment, 2 h incubation) is reported as 0.68 ng/μg protein.
As for `COc1ccc2c3c([nH]c2c1)[C@H](CC(C)C)N1C(=O)[C@H](CCC(=O)OC(C)(C)C)NC(=O)[C@@H]1C3` [Ko143], the “selectivity over P-gp and MRP1 transporters” value with BCRP [5] was “higher than 200 fold”.
